Assay results: patent US10689343B2, “Inhibitors of tryptophan 2,3-dioxygenase” (NETHERLANDS TRANSLATIONAL RESEARCH CENTER B.V., priority 2016, dated 2020)
Several values for one entry are separate records, joined by “and”; a condition that tells them apart may be missing. Identical values can stand only once.

Key:
CYP2D6 = CYP2D6 (Homo sapiens, UniProt P10635); assay: P450-Glo CYP2D6 Luc-IP assay
CYP3A4 = CYP3A4 (Homo sapiens, UniProt P08684); assay: P450-Glo CYP3A4 luciferin isopropylacetal (Luc-IP) assay
Chain of CYP3A4 (P08684 whole entry): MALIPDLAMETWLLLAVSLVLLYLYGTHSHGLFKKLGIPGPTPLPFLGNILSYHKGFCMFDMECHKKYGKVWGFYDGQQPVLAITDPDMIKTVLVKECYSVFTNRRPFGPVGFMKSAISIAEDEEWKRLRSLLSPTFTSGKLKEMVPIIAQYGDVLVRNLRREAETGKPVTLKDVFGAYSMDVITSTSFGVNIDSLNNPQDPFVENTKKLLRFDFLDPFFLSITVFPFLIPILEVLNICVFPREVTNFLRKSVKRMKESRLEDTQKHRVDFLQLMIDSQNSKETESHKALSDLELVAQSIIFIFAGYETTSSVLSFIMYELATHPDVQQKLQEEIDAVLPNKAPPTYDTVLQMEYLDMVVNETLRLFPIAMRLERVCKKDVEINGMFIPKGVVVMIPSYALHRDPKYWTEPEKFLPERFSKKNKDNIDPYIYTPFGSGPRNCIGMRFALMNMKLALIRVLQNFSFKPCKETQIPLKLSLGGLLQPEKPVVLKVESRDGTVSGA
Source text: To determine the inhibitory potency of compounds on CYP3A4 enzyme, the P450-Glo CYP3A4 luciferin isopropylacetal (Luc-IP) assay was used (Promega, Madison, Wis., USA, Cat. No. V9920). The assay makes use of a luminogenic isopropylacetal (IPA) substrate that is a derivative from beetle luciferin, a substrate of luciferase enzymes. The IPA substrate is converted by CYP3A4 to luciferin, which in turn reacts with luciferase to produce an amount of light that is directly proportional to the activity of CYP3A4. Compounds were serially diluted in DMSO and finally in 400 mM K2HPO4, pH 7.4. 5 μl of compound solution and 5 μl of CYP3A4/substrate solution were combined in the well of a white 384-well Optiplate (Perkin Elmer). The DMSO concentration in the assay was 0.1%. After incubation for 10 minutes at room temperature in the dark, 10 μl of NADPH regeneration system was added and incubation was continued for 10 min. Then, 20 μl of Luciferin Detection Reagent was added to stop the reaction, and incubation was continued for another 20 min. Luminescence was measured on an Envision multimode reader and IC50 values were calculated using XLfit™. […] Instead of in a 96-well plate, the assay was performed in 384-well white Perkin Elmer Optiplate (cat. no. 6007290).

Recombinant TDO = target: T1, Recombinant TDO (Homo sapiens, UniProt P48775); assay: Biochemical assay for TDO (NFK GreenScreen); details: 50 nM TDO, 200 μM L-tryptophan
T1 construct: Recombinant TDO (Seegers, N., et al.) and all other assay components were diluted in TDO reaction buffer
T1 sequence (P48775 whole entry): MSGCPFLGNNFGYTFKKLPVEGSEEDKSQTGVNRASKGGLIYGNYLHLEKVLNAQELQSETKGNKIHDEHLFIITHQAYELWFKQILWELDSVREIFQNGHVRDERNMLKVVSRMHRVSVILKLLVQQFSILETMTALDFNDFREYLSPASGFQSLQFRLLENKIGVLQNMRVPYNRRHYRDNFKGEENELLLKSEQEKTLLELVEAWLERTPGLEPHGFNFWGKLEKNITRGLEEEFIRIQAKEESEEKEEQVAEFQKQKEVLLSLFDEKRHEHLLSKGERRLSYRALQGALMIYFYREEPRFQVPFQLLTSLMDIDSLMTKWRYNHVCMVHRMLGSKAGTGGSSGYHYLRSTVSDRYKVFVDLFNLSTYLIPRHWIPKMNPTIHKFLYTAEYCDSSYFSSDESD
Procedure: Biochemical Assay for TDO
The NFK GreenScreen™ assay technology was also used to determine the inhibitory activity of compounds on TDO (Seegers, N., et al., J. Biol. Screen. 19: 1266; 2014). Compounds were serially diluted in DMSO and finally in TDO reaction buffer, consisting of 100 mM NaH2PO4, pH 7.0, supplemented with 0.02% Tween-20 (cat. No. P7949; Sigma Aldrich). Recombinant TDO (Seegers, N., et al.) and all other assay components were diluted in TDO reaction buffer. 10 μl of compound solution and 20 μl of enzyme solution supplemented with 200 μM ascorbic acid were combined in the well of a black 384-well plate (cat. no. 3573; Corning, Corning, N.Y., USA), and incubated for 60 min at room temperature. Subsequently, 10 μl of 0.8 mM of the substrate L-tryptophan was added, i.e., the final concentration of L-tryptophan was 200 μM. The DMSO concentration in the assay was 0.3%. The concentration of TDO was 50 nM. Incubation was continued for 15 min at room temperature. Then, 10 μl of NFK Green™ (NTRC, Oss, The Netherlands) was added, the plate was sealed, and the reaction was developed for 3 hours at 37° C. To determine the production of N-formyl kynurenine (NFK), the seal was removed and fluorescence was read on an EnVision multimode reader (Perkin Elmer, Waltham, Mass., USA). IC50 were calculated using XLfit™ software (ID Business Solutions, Ltd., Surrey, U.K.).

[1] = target: T2, TDO in SW48 colorectal carcinoma cells (Homo sapiens, UniProt P48775); assay: Cell-based assay for TDO in SW48 colorectal carcinoma cells (NFK GreenScreen); details: 18 hours with L-tryptophan, read-out: IC50 on TDO in cells
T2 construct: Endogenous expression of TDO has been determined in a variety of cancer cell lines; host or cells: SW48 colorectal carcinoma cells
T2 sequence (P48775 whole entry): as above
Procedure: The biological activity of TDO inhibitors can be measured by applying above detection methods to cells that are treated with test compound. Endogenous expression of TDO has been determined in a variety of cancer cell lines (Pilotte et al.; Seegers, et al.), or TDO can be expressed in cells that lack endogenous TDO by transfection of an expression vector containing TDO cDNA. […] A preferred assay is the cell-based NFK GreenScreen™ assay (Seegers et al, supra), which measures the cellular inhibitory activity of compounds on TDO. […] No. V9920). Cell-Based Assay for TDO The NFK GreenScreen™ assay technology was also used to determine the inhibitory activity of compounds on TDO in SW48 colorectal carcinoma cells (Seegers, N., et al., J. Biol. Screen. 19: 1266; 2014). […] Compounds were dissolved in DMSO and diluted in RPMI 1640. Final DMSO concentration in the assay was 0.4% (v/v). Eight thousand cells per well in 40 μl were seeded in a black 384-well tissue plate (cat. No. 781086; […] To determine NFK levels, 12 μl NFK Green™ (NTRC, Oss, The Netherlands) was added to each well, and the plate was sealed and incubated for 4 hours at 37° C. Fluorescence was measured on an EnVision multimode reader (Perkin Elmer, Waltham, Mass., USA).

Chain of CYP2D6 (P10635 whole entry): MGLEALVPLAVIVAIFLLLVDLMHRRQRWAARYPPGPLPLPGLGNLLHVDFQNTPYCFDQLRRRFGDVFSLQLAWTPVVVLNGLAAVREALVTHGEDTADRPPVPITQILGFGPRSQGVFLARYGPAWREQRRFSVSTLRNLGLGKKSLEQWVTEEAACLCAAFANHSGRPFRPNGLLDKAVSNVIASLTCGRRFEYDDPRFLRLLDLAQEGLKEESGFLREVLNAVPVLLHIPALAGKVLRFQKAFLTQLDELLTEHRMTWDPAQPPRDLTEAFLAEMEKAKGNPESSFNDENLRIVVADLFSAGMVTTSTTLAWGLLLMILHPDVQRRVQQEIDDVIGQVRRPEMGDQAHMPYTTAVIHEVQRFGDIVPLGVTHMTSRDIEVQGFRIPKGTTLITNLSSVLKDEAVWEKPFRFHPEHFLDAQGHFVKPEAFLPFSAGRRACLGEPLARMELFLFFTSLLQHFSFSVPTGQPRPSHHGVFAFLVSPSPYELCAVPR

| Compound | IC50 (CYP2D6) [µM] | IC50 (CYP3A4) [µM] | IC50 (Recombinant TDO) [µM] | IC50 [1] |
| --- | --- | --- | --- | --- |
| CCN(CC)CC(C)NC(=O)c1ccc(-c2c[nH]c3cc(F)ccc23)cc1Cl (stereo not shown) [Example 73, 2-Chloro-N-[2-(diethylamino)-1-methyl-ethyl]-4-(6-fluoro-1H-indol-3-yl)benzamide] | > 10 | > 10 | < 1 | ≤ 0.2 µM |
| O=C(N[C@H]1CCCNC1)c1ccc(-c2c[nH]c3cc(F)ccc23)cc1F [Example 125, 2-Fluoro-4-(6-fluoro-1H-indol-3-yl)-N-[(3S)-3-piperidyl]benzamide] | > 10 | 5 to 10 | < 1 | ≤ 0.2 µM |
| C[C@@H](CO)NC(=O)c1c(F)cc(-c2c[nH]c3cc(F)ccc23)cc1F [Example 60, 2,6-Difluoro-4-(6-fluoro-1H-indol-3-yl)-N-[(1S)-2-hydroxy-1-methyl-ethyl]benzamide] | > 10 | > 10 | < 1 | ≤ 0.5 µM and 0.2 to 0.5 µM |
| CN1CCCC(NC(=O)c2ccc(-c3c[nH]c4cc(F)ccc34)cc2Cl)C1 (stereo not shown) [Example 68, 2-Chloro-4-(6-fluoro-1H-indol-3-yl)-N-(1-methyl-3-piperidyl)benzamide] | > 10 | 5 to 10 | < 1 | ≤ 0.2 µM |
| CN1C2CCC1CC(NC(=O)c1ccc(-c3c[nH]c4cc(F)ccc34)cc1)C2 (stereo not shown) [Example 47, 4-(6-Fluoro-1H-indol-3-yl)-N-(8-methyl-8-azabicyclo[3.2.1]octan-3-yl)benzamide] | > 10 | > 10 | < 1 | ≤ 0.5 µM and 0.2 to 0.5 µM |
| O=C(Nc1ccc(-c2c[nH]c3cc(F)ccc23)cc1)C1C2CNCC21 (stereo not shown) [Example 104, N-[4-(6-fluoro-1H-indol-3-yl)phenyl]-3-azabicyclo[3.1.0]hexane-6-carboxamide] | > 10 | 5 to 10 | < 1 | ≤ 0.5 µM and 0.2 to 0.5 µM |
| CN(C)CCCNC(=O)c1c(F)cc(-c2c[nH]c3cc(F)ccc23)cc1F [Example 59, N-[3-(dimethylamino)propyl]-2,6-difluoro-4-(6-fluoro-1H-indol-3-yl)benzamide] | > 10 | > 10 | < 1 | ≤ 0.5 µM and 0.2 to 0.5 µM |
| O=C(NCCN1CCCCC1)c1ccc(-c2c[nH]c3cc(F)ccc23)cc1 [Example 46, 4-(6-Fluoro-1H-indol-3-yl)-N-[2-(1-piperidyl)ethyl]benzamide] | > 10 | 5 to 10 | < 1 | ≤ 0.5 µM and 0.2 to 0.5 µM |
| O=C(N[C@H]1CCCNC1)c1c(F)cc(-c2c[nH]c3cc(F)ccc23)cc1F [Example 58, 2,6-Difluoro-4-(6-fluoro-1H-indol-3-yl)-N-[(3S)-3-piperidyl]benzamide] | > 10 | > 10 | < 1 | ≤ 0.2 µM |
| COc1cc(-c2c[nH]c3cc(F)ccc23)ccc1C(=O)N[C@H]1CCCNC1 [Example 75, 4-(6-Fluoro-1H-indol-3-yl)-2-methoxy-N-[(3S)-3-piperidyl]benzamide] | > 10 | 5 to 10 | < 1 | ≤ 0.2 µM |
| CN1CCC(O)(CNC(=O)c2ccc(-c3c[nH]c4cc(F)ccc34)cc2)CC1 [Example 63, 4-(6-Fluoro-1H-indol-3-yl)-N-[(4-hydroxy-1-methyl-4-piperidyl)methyl]benzamide] | > 10 | > 10 | < 1 | ≤ 0.5 µM and 0.2 to 0.5 µM |
| O=C(NCCN1CCCC1)c1ccc(-c2c[nH]c3cc(F)ccc23)cc1Cl [Example 70, 2-Chloro-4-(6-fluoro-1H-indol-3-yl)-N-(2-pyrrolidin-1-ylethyl)benzamide] | > 10 | 5 to 10 | < 1 | ≤ 0.2 µM |
| O=C(NCCC(F)(F)F)c1ccc(-c2c[nH]c3cc(F)ccc23)cc1 [Example 134, 4-(6-Fluoro-1H-indol-3-yl)-N-(3,3,3-trifluoropropyl)benzamide] | > 10 | > 10 | 1 to 5 | ≤ 0.2 µM |
| O=C(NOC[C@@H](O)CO)c1ccc(-c2c[nH]c3cc(F)ccc23)cc1 [Example 66, N-[(2S)-2,3-dihydroxypropoxy]-4-(6-fluoro-1H-indol-3-yl)benzamide] | > 10 | 5 to 10 | < 1 | ≤ 0.5 µM and 0.2 to 0.5 µM |
| CN(C)CCCNC(=O)c1ccc(-c2c[nH]c3cc(F)ccc23)cc1F [Example 124, N-[3-(dimethylamino)propyl]-2-fluoro-4-(6-fluoro-1H-indol-3-yl)benzamide] | > 10 | 5 to 10 | < 1 | ≤ 0.2 µM |
| O=C(NCCN1C[C@@H](O)[C@H](O)C1)c1ccc(-c2c[nH]c3cc(F)ccc23)cc1Cl [Example 116, 2-Chloro-N-[2-[(3R,4R)-3,4-dihydroxypyrrolidin-1-yl]ethyl]-4-(6-fluoro-1H-indol-3-yl)benzamide] | > 10 | > 10 | < 1 | ≤ 0.5 µM and 0.2 to 0.5 µM |

Further lines, results first:

| IC50 (CYP2D6) [µM] | IC50 (CYP3A4) [µM] | IC50 (Recombinant TDO) [µM] | IC50 [1] | Compound |
| --- | --- | --- | --- | --- |
| > 10 | > 10 | < 1 | ≤ 0.5 µM and 0.2 to 0.5 µM | CC(C)(O)CNC(=O)c1ccc(-c2c[nH]c3cc(F)ccc23)cc1 [Example 13, 4-(6-Fluoro-1H-indol-3-yl)-N-(2-hydroxy-2-methyl-propyl)benzamide] |
| > 10 | > 10 | < 1 | ≤ 0.5 µM and 0.2 to 0.5 µM | N#CC1(NC(=O)c2ccc(-c3c[nH]c4cc(F)ccc34)cc2)CC1 [Example 12, N-(1-cyanocyclopropyl)-4-(6-fluoro-1H-indol-3-yl)benzamide] |
| 5 to 10 | > 10 | < 1 | ≤ 0.5 µM and 0.2 to 0.5 µM | O=C(NCCO)c1ccc(-c2c[nH]c3cc(F)ccc23)cc1 [Example 10, 4-(6-Fluoro-1H-indol-3-yl)-N-(2-hydroxyethyl)benzamide] |
| > 10 | 5 to 10 | < 1 | ≤ 0.5 µM and 0.2 to 0.5 µM | N[C@H]1CC[C@@H](NC(=O)c2ccc(-c3c[nH]c4cc(F)ccc34)cc2)CC1 [Example 61, N-(cis-4-aminocyclohexyl)-4-(6-fluoro-1H-indol-3-yl)benzamide] |
| > 10 | > 10 | < 1 | ≤ 0.2 µM | O=C(N[C@H]1CCCNC1)c1ccc(-c2c[nH]c3cc(F)ccc23)cc1 [Example 19, 4-(6-Fluoro-1H-indol-3-yl)-N-[(3S)-3-piperidyl]benzamide] |
| > 10 | > 10 | < 1 | ≤ 0.5 µM and 0.2 to 0.5 µM | O=C(NN1CCOCC1)c1ccc(-c2c[nH]c3cc(F)ccc23)cc1 [Example 93, 4-(6-Fluoro-1H-indol-3-yl)-N-morpholino-benzamide] |
| > 10 | 5 to 10 | < 1 | ≤ 0.5 µM and 0.2 to 0.5 µM | CO[C@H]1CNCC[C@H]1NC(=O)c1ccc(-c2c[nH]c3cc(F)ccc23)cc1 [Example 43, 4-(6-Fluoro-1H-indol-3-yl)-N-[(3S,4R)-3-methoxy-4-piperidyl]benzamide] |
| > 10 | > 10 | < 1 | ≤ 0.5 µM and 0.2 to 0.5 µM | O=C(NC1COC1)c1ccc(-c2c[nH]c3cc(F)ccc23)cc1 [Example 26, 4-(6-Fluoro-1H-indol-3-yl)-N-(oxetan-3-yl)benzamide] |
| > 10 | > 10 | < 1 | ≤ 0.5 µM and 0.2 to 0.5 µM | NC(=O)CNC(=O)c1ccc(-c2c[nH]c3cc(F)ccc23)cc1 [Example 112, N-(2-amino-2-oxo-ethyl)-4-(6-fluoro-1H-indol-3-yl)benzamide] |
